In patent US20140094366A1, “SYNERGISTIC WEED CONTROL FROM APPLICATIONS OF AMINOCYCLOPYRACHLOR AND FLUROXYPYR” (Dow AgroSciences LLC, priority 2012, published 2014):

Experiments:
Assay in all cases: Field trial, post-emergence foliar weed control
Format in all cases: in vivo
[1] = test system: buckhorn plantain (Plantago lanceolata, PLALA); conditions: 27 DAYS, 18 g ae/ha, alone
From the text: (§1) The (a) aminocyclopyrachloror an agriculturally acceptable salt or ester thereof is mixed with or applied in combination with (b) fluoroxypyr or an agriculturally acceptable salt or ester thereof in an amount sufficient to induce a synergistic herbicidal effect. […] As described in the Herbicide Handbook of the Weed Science Society of America, Ninth Edition, 2007, p. 429, “‘synergism’ [is] an interaction of two or more factors such that the effect when combined is greater than the predicted effect based on the response to each factor applied separately.” Synergistic in the herbicide context can mean that the use of (a) and (b) as defined above results in an increased weed control effect compared to the weed control effects that are possible with the use of (a) or (b) alone. In some embodiments, the damage or injury to the undesired vegetation caused by the compositions and methods disclosed herein is evaluated using a scale from 0% to 100%, when compared with the untreated control vegetation, wherein 0% indicates no damage to the undesired vegetation and 100% indicates complete destruction of the undesired vegetation. […] 22 (1967)
(§2) Field trials were conducted with applications made to established grassland with naturally occurring weed populations, or applications were made to bare ground with naturally occurring weed populations. The target plants were treated with postemergence foliar applications after they had reached at least 3-4 leaves or at least 2-5 inches in height. All treatments were applied using a randomized complete block trial design, with 3-4 replications per treatment.
(§3) Treatments consisted of aminocyclopyrachlor in acid form and fluoroxypyr-meptyl, each in water and applied alone or in combination. Spray solutions were prepared using an appropriate amount of dilution to form a 2 liter (L) aqueous spray solution with active ingredients in single and two way combinations. Formulated compounds were applied to the plant material with a backpack sprayer equipped with 8003 or Turbojet nozzles calibrated to deliver 187 liters per hectare (L/ha) to 400 L/ha at a spray height of 18-20 inches (43-50 centimeters (cm)) above average plant canopy or ground.
(§4) The treated plants were shepherd's purse (Capsella bursa-pastoris, CAPBP), common fiddleneck (Amsinckia menziesii, AMSIN), wild oat (Avena fatua, AVEFA), cat's ear dandelion (Hypochaeris radicata, HRYRA), yellow star thistle (Centaurea solstitialis, CENSO), common guava (Psidium guajava, PSIGU), buckhorn plantain (Plantago lanceolata, PLALA), and calvary clover (Medicago arabica, MEDAB). The treated plots and control plots were rated blind at various intervals after application. Ratings were based on a scale of 0-100%, as discussed above, wherein 0% indicates no damage to the undesired vegetation and 100% indicates complete destruction of the undesired vegetation.
(§5) Colby's equation was used to determine the herbicidal effects expected from the mixtures, as described above. The results were measured at 11 days, 17 days, 24 days, 27 days, 37 days, 70 days, 76 days, and 88 days after the first application of the compositions. […] The herbicide tank mix combinations tested, application rates and ratios employed, plant species tested, and results are given below.

[2] = test system: calvary clover (Medicago arabica, MEDAB); conditions: 27 DAYS, alone
From the text: as §1, §2, §3, §4, §5

[3] = test system: cat's ear dandelion (Hypochaeris radicata, HRYRA); conditions: alone
From the text: as §1, §2, §3, §4, §5

[4] = test system: common fiddleneck (Amsinckia menziesii, AMSIN); conditions: alone; for Aminocyclopyrachlor Mean % weed control: 18 g ae/ha; for Fluroxypyr-meptyl Mean % weed control: 70 g ae/ha
From the text: as §1, §2, §3, §4, §5

[5] = test system: common guava (Psidium guajava, PSIGU); conditions: alone
From the text: as §1, §2, §3, §4, §5

[6] = test system: shepherd's purse (Capsella bursa-pastoris, CAPBP); conditions: alone
From the text: as §1, §2, §3, §4, §5

[7] = test system: wild oat (Avena fatua, AVEFA); conditions: 11 DAYS, alone
From the text: as §1, §2, §3, §4, §5

[8] = test system: yellow star thistle (Centaurea solstitialis, CENSO); conditions: 37 DAYS, alone
From the text: as §1, §2, §3, §4, §5

Nc1nc(C2CC2)nc(C(=O)O)c1Cl [Aminocyclopyrachlor, 6-amino-5-chloro-2-cyclopropylpyrimidine-4-carboxylic acid]
Aminocyclopyrachlor Mean % weed control [1]: 22.5%
Aminocyclopyrachlor Mean % weed control ([2]; 18 g ae/ha): 27.5%
Aminocyclopyrachlor Mean % weed control ([2]; 35 g ae/ha): 47.5%
Aminocyclopyrachlor Mean % weed control ([3]; 11 DAYS, 35 g ae/ha): 1.75%
Aminocyclopyrachlor Mean % weed control ([3]; 37 DAYS, 18 g ae/ha): 28.75%
Aminocyclopyrachlor Mean % weed control ([3]; 70 DAYS, 18 g ae/ha): 36.25%
Aminocyclopyrachlor Mean % weed control ([4]; 17 DAYS): 0%
Aminocyclopyrachlor Mean % weed control ([4]; 24 DAYS): 0%
Aminocyclopyrachlor Mean % weed control ([5]; 76 DAYS, 50 g ae/ha): 7.5%
Aminocyclopyrachlor Mean % weed control ([5]; 76 DAYS, 150 g ae/ha): 48.3%
Aminocyclopyrachlor Mean % weed control ([5]; 88 DAYS, 50 g ae/ha): 7.5%
Aminocyclopyrachlor Mean % weed control ([5]; 88 DAYS, 150 g ae/ha): 57.5%
Aminocyclopyrachlor Mean % weed control ([6]; 17 DAYS, 18 g ae/ha): 23.33%
Aminocyclopyrachlor Mean % weed control ([6]; 17 DAYS, 35 g ae/ha): 50%
Aminocyclopyrachlor Mean % weed control ([6]; 24 DAYS, 35 g ae/ha): 50%
Aminocyclopyrachlor Mean % weed control ([7]; 35 g ae/ha): 0%
Aminocyclopyrachlor Mean % weed control ([8]; 18 g ae/ha): 57.5%

CCCCCCC(C)OC(=O)COc1nc(F)c(Cl)c(N)c1Cl (stereo not drawn) [Fluroxypyr-meptyl]
Fluroxypyr-meptyl Mean % weed control [1]: 10%
Fluroxypyr-meptyl Mean % weed control ([2]; 18 g ae/ha): 11.25%
Fluroxypyr-meptyl Mean % weed control ([2]; 35 g ae/ha): 7.5%
Fluroxypyr-meptyl Mean % weed control ([2]; 70 g ae/ha): 47.5%
Fluroxypyr-meptyl Mean % weed control ([3]; 11 DAYS, 70 g ae/ha): 0%
Fluroxypyr-meptyl Mean % weed control ([3]; 37 DAYS, 18 g ae/ha): 0.5%
Fluroxypyr-meptyl Mean % weed control ([3]; 37 DAYS, 70 g ae/ha): 3%
Fluroxypyr-meptyl Mean % weed control ([3]; 70 DAYS, 70 g ae/ha): 1.75%
Fluroxypyr-meptyl Mean % weed control ([4]; 17 DAYS): 3.33%
Fluroxypyr-meptyl Mean % weed control ([4]; 24 DAYS): 3.33%
Fluroxypyr-meptyl Mean % weed control ([5]; 76 DAYS, 80 g ae/ha): 4.8%
Fluroxypyr-meptyl Mean % weed control ([5]; 76 DAYS, 240 g ae/ha): 16.3%
Fluroxypyr-meptyl Mean % weed control ([5]; 88 DAYS, 80 g ae/ha): 4.8%
Fluroxypyr-meptyl Mean % weed control ([5]; 88 DAYS, 240 g ae/ha): 16.3%
Fluroxypyr-meptyl Mean % weed control ([6]; 17 DAYS, 35 g ae/ha): 6.67%
Fluroxypyr-meptyl Mean % weed control ([6]; 17 DAYS, 70 g ae/ha): 13.33%
Fluroxypyr-meptyl Mean % weed control ([6]; 24 DAYS, 70 g ae/ha): 8.33%
Fluroxypyr-meptyl Mean % weed control ([7]; 70 g ae/ha): 1%
Fluroxypyr-meptyl Mean % weed control ([8]; 70 g ae/ha): 22.5%
